# Measured values as given in patent US8304002B2, “Fenugreek extract for treating human and animal diseases involving flagellate parasites” (Setubio S.A.S., priority 2008, dated 2012).
# How the values were obtained:
# [1] = system: Histomonas meleagridis; assay: Regrowth of H. meleagridis after transfer into fresh medium following 72 h treatment; format: cell-based
# Description: After 72 h of treatment with […] and DMZ, the parasites were put into fresh medium for 96 h to analyse the histomonicidal effect (FIG. 5).
# [2] = system: Histomonas meleagridis; assay: Anti-Histomonas activity: in vitro culture with parasite counts; format: cell-based
# Description: The strain of H. meleagridis was isolated from the caeca of turkeys experimentally infested with eggs of the H. gallinarum worm. The parasites were cultured at 39° C. in sealed glass tubes containing 3 mL of supplemented M199 medium. They were transferred twice a week. To do this, 80 μL of preculture were added to 3 mL of fresh medium previously heated in a water bath to 39° C. Counting was performed in a Malassez counting chamber after staining with 0.4% trypan blue. The 100 fields of the chamber were counted. […] was tested at different concentrations. A parasite count was performed three times after 72 h incubation. A negative control was included by replacing the extract with the solvent only (sterile water). To study the dose-dependent effect, each test was performed in triplicate, with different concentrations, counting the parasites at 24 h, 48 h and 72 h. A negative control was included by replacing the extract with the solvent only.
# [3] = system: bacterial flora associated with H. meleagridis; assay: Effect on the bacterial flora associated with H. meleagridis; format: cell-based; conditions: 48 h of culture, FIG. 4
# Description: An aliquot of H. meleagridis culture was taken. Four serial dilutions (10^-4 to 10^-7) were made in liquid tryptone soya medium. 20 μL of each dilution was spread onto tryptone soya agar medium. Incubation at 37° C. overnight. The effects of different concentrations of […] and of DMZ on the associated bacterial flora after 48 h of culture were then compared. The results are expressed in number of bacteria per mL (FIG. 4). The extract […] was histomonicidal from 1 mg/mL. It had no effect on the associated bacterial flora. Dimetridazole is histomonicidal from 25 μg/mL at 72 h. On the other hand it is bactericidal from 400 μg/mL.
# [4] = system: MRC5 cells; assay: Cytotoxicity test (protein assay, SRB) on MRC5 cells; format: cell-based, human; conditions: MRC5, 100 μg/mL to 2 mg/mL, 24 h and 48 h
# Description: The MRC5 cells (primary human foetal lung fibroblasts) were cultured in 25 or 75 cm^2 dishes in supplemented MEM (Minimum Essential Medium, Life Technologies Gibco), in a chamber at 37° C. and % CO2. 500 mL of MEM was supplemented with foetal calf serum (10% final), glutamine 2 mM (5 mL), antibiotics (5 mL penicillin/streptomycin i.e. […], 0.5 mL ampicillin i.e. 10 μg/ml, 0.25 mL gentamicin i.e. 25 μg/mL) and fungicides (5 mL fungizone i.e. 2.5 μg/mL). When the cells reached confluence, they were trypsinised and transferred into 96-well plates at […]. They were then incubated at 37° C., 5% CO2 for 24 h before starting the test. The plates were duplicated for a protein assay after 24 and 48 h. This test consists of culturing the cells in the presence of extracts, then precipitating total proteins to determine their concentration. The MRC5 cells were put into contact with 200 μL of supplemented MEM containing different concentrations of the extracts to be tested. […] Each dilution was tested in triplicate to produce a mean. Two controls were used: • a negative control: cells in the supplemented MEM only • a positive control: cells in the presence of a mixture of the supplemented MEM and 50% DMSO The plates were then incubated at 37° C., 5% CO2 for 24 or 48 h. […] The contents of the wells were homogenised and the optical density read at 490 nm. […]
# [5] = 25 μg/mL for 72 h, then fresh medium 96 h
Structure (SMILES),"regrowth of the culture ([1]; 12.5 μg/mL for 72 h, then fresh medium 96 h)","growth relative to the control after transfer [1, 5]","regrowth of the culture [1, 5]","regrowth of the culture ([1]; 400 μg/mL for 72 h, then fresh medium 96 h)","regrowth of the culture ([1]; 1 mg/mL for 72 h, then fresh medium 96 h)","concentration from which histomonicidal (confirmed by regrowth) ([1]; 72 h treatment, then fresh medium 96 h)",histomonicidal or histomonostatic (confirmed by regrowth) ([1]; at 25 μg/mL),"effect on growth of H. meleagridis (in words) ([2]; FIG. 3, tested in parallel S520/DMZ)",concentration from which histomonicidal ([2]; at 72 h),"concentration at which parasiticidal ([2]; growth of H. meleagridis, FIG. 3)",concentration from which bactericidal [3],"inhibition at 2000 µg/mL ([2]; Histomonas meleagridis, 2 mg/mL, at 72 h, read-out: inhibition of proliferation of H. meleagridis)",effect on the proliferation of H. meleagridis ([2]; at 2 mg/mL),cytotoxicity for human cells in culture [4]
"Cc1ncc([N+](=O)[O-])n1C [DMZ, dimetridazole]",regrowth,about 30%,regrowth,No regrowth,No regrowth,≥ 400 µg/mL,histomonostatic,parasitostatic,≥ 25 µg/mL,25 µg/mL,≥ 400 µg/mL,–,–,–
O=C(N/N=C/c1ccc([N+](=O)[O-])o1)c1cc([N+](=O)[O-])cc([N+](=O)[O-])c1O [Nifursol],–,–,–,–,–,–,–,–,–,–,–,38%,slightly histomonostatic,not toxic
